Patent US9751869B2, “LXR modulators” (BRISTOL-MYERS SQUIBB COMPANY, priority 2013, dated 2017)

Target: T1, LXRβ (Homo sapiens, UniProt P55055)
T1 construct: Co-transfection expression plasmids, comprising full-length LXRα (pCMX-h LXRα or LXRβ (pCMX-hLXRβ)); expressed in transfected cells; host or cells: CV-1 African green monkey kidney cells, transient transfection with pCMX-hLXRβ
T1 sequence (P55055 1-460): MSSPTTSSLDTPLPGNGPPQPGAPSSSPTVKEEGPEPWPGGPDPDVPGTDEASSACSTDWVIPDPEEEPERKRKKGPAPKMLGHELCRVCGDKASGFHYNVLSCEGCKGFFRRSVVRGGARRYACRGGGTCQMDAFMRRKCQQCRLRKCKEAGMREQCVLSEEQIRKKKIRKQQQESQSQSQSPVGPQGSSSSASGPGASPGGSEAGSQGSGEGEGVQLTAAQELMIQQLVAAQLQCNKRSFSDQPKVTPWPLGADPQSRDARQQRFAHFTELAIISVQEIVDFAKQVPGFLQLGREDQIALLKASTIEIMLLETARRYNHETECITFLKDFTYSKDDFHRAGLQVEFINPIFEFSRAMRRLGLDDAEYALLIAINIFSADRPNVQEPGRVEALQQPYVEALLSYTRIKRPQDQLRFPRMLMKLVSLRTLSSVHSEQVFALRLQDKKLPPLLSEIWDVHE
T1 sequence (P19793 1-462 partner): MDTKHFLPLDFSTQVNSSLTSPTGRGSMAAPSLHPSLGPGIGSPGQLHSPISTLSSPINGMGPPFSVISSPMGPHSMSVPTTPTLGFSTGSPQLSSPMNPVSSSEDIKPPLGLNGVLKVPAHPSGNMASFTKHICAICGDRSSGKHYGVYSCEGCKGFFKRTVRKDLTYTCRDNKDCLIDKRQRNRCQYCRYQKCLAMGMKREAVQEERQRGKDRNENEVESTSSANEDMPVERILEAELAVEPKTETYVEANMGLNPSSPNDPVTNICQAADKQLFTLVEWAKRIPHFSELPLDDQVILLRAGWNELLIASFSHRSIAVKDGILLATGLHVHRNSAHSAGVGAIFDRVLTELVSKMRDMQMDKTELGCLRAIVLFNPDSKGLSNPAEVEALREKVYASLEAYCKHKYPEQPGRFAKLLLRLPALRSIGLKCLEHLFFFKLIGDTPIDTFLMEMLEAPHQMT
Assay: LXR/LXRE co-transfection assay (luciferase reporter) in CV-1 cells, LXRβ
Assay type: cell-based
Conditions: for EC50: CV-1 cells transfected with pCMX-hLXRβ and LXREx1-Tk-Luciferase, 20 hours incubation, read-out: LXRbeta agonism EC50; for Emax: CV-1 cells, relative to maximum response of high control N-(3-((4-fluorophenyl)-(naphthalene-2-sulfonyl)amino)propyl)-2,2-dimethylpropionamide, read-out: LXRbeta % EFFICACY
Method in brief: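 CV-1 cells transiently co-transfected with full-length human LXRβ, LXRE-Tk-luciferase reporter and β-galactosidase control, then exposed to compound (≤0.5% DMSO) for 20 h at 37 °C before luminescence read. EC50 from 10-point, half-log dose curves; efficacy relative to the sulfonamide high control, means of 2–3 experiments.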

Structure (SMILES) | EC50 [nM] | Emax [%]
Cc1nc(-c2cc(-c3cc(F)c(CO)c(S(C)(=O)=O)c3)ccc2-n2ccc(C(F)(F)F)n2)c(-c2ccc(OC(F)(F)F)cc2)o1 [Example 413, (3-fluoro-3′-(2-methyl-5-(4-(trifluoromethoxy)phenyl)oxazol-4-yl)-5-(methylsulfonyl)-4′-(3-(trifluoromethyl)-1H-pyrazol-1-yl)biphenyl-4-yl)methanol] | 52 | 73
Cc1nc(-c2cc(-c3cccc(S(C)(=O)=O)c3)ccc2-n2nc(C(F)(F)F)cc2C)c(-c2ccc(OC(F)(F)F)cc2)o1 [Example 385, 2-methyl-4-(4-(5-methyl-3-(trifluoromethyl)-1H-pyrazol-1-yl)-3′-(methylsulfonyl)biphenyl-3-yl)-5-(4-(trifluoromethoxy)phenyl) oxazole] | 42 | 71
Cc1nc(-c2cc(-c3cc(F)c(CO)c(S(C)(=O)=O)c3)ccc2-n2nc(C(F)(F)F)cc2Cl)c(-c2ccc(OC(F)(F)F)cc2)o1 [Example 405, (4′-(5-chloro-3-(trifluoromethyl)-1H-pyrazol-1-yl)-3-fluoro-3′-(2-methyl-5-(4-(trifluoromethoxy)phenyl)oxazol-4-yl)-5-(methylsulfonyl)biphenyl-4-yl)methanol] | 100 | 63
Cc1nc(-c2ccc(OC(F)(F)F)cc2)c(-c2cc(-c3cc(F)c(CO)c(S(C)(=O)=O)c3)ccc2-n2cc(C)c(C(F)(F)F)n2)o1 [Example 439, (3-fluoro-4′-(4-methyl-3-(trifluoromethyl)-1H-pyrazol-1-yl)-3′-(2-methyl-4-(4-(trifluoromethoxy)phenyl)oxazol-5-yl)-5-(methylsulfonyl)-[1,1′-biphenyl]-4-yl)methanol] | 38 | 64
Cc1nc(-c2ccc3c(c2)OC(F)(F)O3)c(-c2cc(-c3cc(F)c(CO)c(S(C)(=O)=O)c3)ccc2-c2cc(C(F)(F)C(=O)NC(C)C)nn2C)o1 [Example 82, 2-(5-(3-(4-(2,2-difluorobenzo[d][1,3]dioxol-5-yl)-2-methyloxazol-5-yl)-3′-fluoro-4′-(hydroxymethyl)-5′-(methylsulfonyl)biphenyl-4-yl)-1-methyl-1H-pyrazol-3-yl)-2,2-difluoro-N-isopropylacetamide] | 59 | 33
Cc1nc(-c2cc(-c3cc(F)c(CO)c(S(C)(=O)=O)c3)ccc2-n2nc(C(F)(F)F)cc2C)c(-c2ccc3c(c2)OC(F)(F)O3)o1 [Example 389, (3′-(5-(2,2-difluorobenzo[d][1,3]dioxol-5-yl)-2-methyloxazol-4-yl)-3-fluoro-4′-(5-methyl-3-(trifluoromethyl)-1H-pyrazol-1-yl)-5-(methylsulfonyl)biphenyl-4-yl)methanol] | 7 | 84
Cc1nc(-c2ccc(OC(F)(F)F)cc2)c(-c2cc(-c3cccc(S(C)(=O)=O)c3)ccc2-n2ccc(C(C)(C)O)n2)o1 [Example 316, 2-(1-(3-(2-methyl-4-(4-(trifluoromethoxy)phenyl)oxazol-5-yl)-3′-(methylsulfonyl)biphenyl-4-yl)-1H-pyrazol-3-yl)propan-2-ol] | 293 | 24
Cc1nc(-c2ccc(OC(F)(F)F)cc2)c(-c2cc(-c3cc(F)c(CO)c(S(C)(=O)=O)c3)ccc2-n2ccc(CC#N)n2)o1 [Example 370] | 125 | 86
Cc1nc(-c2ccc3c(c2)OC(F)(F)O3)c(-c2cc(-c3cc(F)c(CO)c(S(C)(=O)=O)c3)ccc2-c2cc(C(F)(F)C(=O)NCC3CC3)nn2C)o1 [Example 87, N-(cyclopropylmethyl)-2-(5-(3-(4-(2,2-difluorobenzo[d][1,3]dioxol-5-yl)-2-methyloxazol-5-yl)-3′-fluoro-4′-(hydroxymethyl)-5′-(methylsulfonyl)biphenyl-4-yl)-1-methyl-1H-pyrazol-3-yl)-2,2-difluoroacetamide] | 134 | 33
Cc1nc(-c2ccc(OC(F)(F)F)cc2)c(-c2cc(-c3cccc(C(C)(C)C#N)c3)ccc2-n2cc(Cl)c(C(F)(F)F)n2)o1 [Example 429, 2-(4′-(4-chloro-3-(trifluoromethyl)-1H-pyrazol-1-yl)-3′-(2-methyl-4-(4-(trifluoromethoxy)phenyl)oxazol-5-yl)-[1,1′-biphenyl]-3-yl)-2-methylpropanenitrile] | 348 | 60
Cc1cc(C(C)(F)F)nn1-c1ccc(-c2cc(F)c(CO)c(S(C)(=O)=O)c2)cc1-n1nncc1-c1ccc(OC(F)(F)F)cc1 [Example 305, {4′-[3-(1,1-difluoroethyl)-5-methyl-1H-pyrazol-1-yl]-3-fluoro-5-(methylsulfonyl)-3′-(5-{4-[(trifluoromethyl)oxy]phenyl}-1H-1,2,3-triazol-1-yl)biphenyl-4-yl}methanol] | 2040 | 45
Cn1nc(C(F)(F)C(=O)NC(C)(C)CO)cc1-c1ccc(-c2cccc(S(C)(=O)=O)c2)cc1-n1nncc1-c1ccc(OC(F)(F)F)cc1 [Example 28, 2,2-difluoro-N-(1-hydroxy-2-methylpropan-2-yl)-2-(1-methyl-5-(3′-(methylsulfonyl)-3-(5-(4-(trifluoromethoxy)phenyl)-1H-1,2,3-triazol-1-yl)-[1,1′-biphenyl]-4-yl)-1H-pyrazol-3-yl)acetamide] | 501 | 107
Cc1nc(-c2ccc(OC(F)F)c(F)c2)c(-c2cc(-c3cc(F)c(CO)c(S(C)(=O)=O)c3)ccc2-n2cc(Cl)c(C(F)(F)F)n2)o1 [Example 434, (4′-(4-chloro-3-(trifluoromethyl)-1H-pyrazol-1-yl)-3′-(4-(4-(difluoromethoxy)-3-fluorophenyl)-2-methyloxazol-5-yl)-3-fluoro-5-(methylsulfonyl)-[1,1′-biphenyl]-4-yl)methanol] | 13 | 78
Cc1nc(-c2ccc3c(c2)OC(F)(F)O3)c(-c2cc(-c3cccc(S(C)(=O)=O)c3)ccc2-n2ccc(C(N)=O)n2)o1 [Example 359, 1-(3-(4-(2,2-difluorobenzo[d][1,3]dioxol-5-yl)-2-methyloxazol-5-yl)-3′-(methylsulfonyl)-[1,1′-biphenyl]-4-yl)-1H-pyrazole-3-carboxamide] | 316 | 14
Cc1nc(-c2ccc(OC(F)(F)F)cc2)c(-c2cc(-c3ccc(CO)c(S(C)(=O)=O)c3)ccc2-n2ccc(C(C)(C)C#N)n2)o1 [Example 378, 2-(1-(4′-(hydroxymethyl)-3-(2-methyl-4-(4-(trifluoromethoxy)phenyl)oxazol-5-yl)-3-(methylsulfonyl)-[1,1′-biphenyl]-4-yl)-1H-pyrazol-3-yl)-2-methylpropanenitrile] | 15 | 29
Cc1nc(-c2ccc3c(c2)OC(F)(F)O3)c(-c2cc(-c3cc(F)c(CO)c(S(C)(=O)=O)c3)ccc2-c2cc(C(F)(F)C(N)=O)nn2C)o1 [Example 74, 2-(5-(3-(4-(2,2-difluorobenzo[d][1,3]dioxol-5-yl)-2-methyloxazol-5-yl)-3′-fluoro-4′-(hydroxymethyl)-5′-(methylsulfonyl)biphenyl-4-yl)-1-methyl-1H-pyrazol-3-yl)-2,2-difluoroacetamide] | 92 | 60
CC(C)c1nc(-c2cc(-c3cccc(S(C)(=O)=O)c3)ccc2-n2ccc(C(F)(F)F)n2)c(-c2ccc(OC(F)(F)F)cc2)o1 [Example 399, 2-isopropyl-4-(3′-(methylsulfonyl)-4-(3-(trifluoromethyl)-1H-pyrazol-1-yl)biphenyl-3-yl)-5-(4-(trifluoromethoxy)phenyl)oxazole] | 200 | 60
